Here are results for 26 compounds from patent US20260184708A1, “PYRIDAZINONES AND METHODS OF USE THEREOF” (GFB (ABC), LLC, priority 2017, published 2026).

The structures appear in SMILES notation. pIC50: −log10 of the molar value.

One experiment has as its target T1, TRPC5 (Homo sapiens, UniProt Q9UL62).
T1 construct: expressed in transfected cells; host or cells: HEK 293
T1 sequence (Q9UL62 1-973): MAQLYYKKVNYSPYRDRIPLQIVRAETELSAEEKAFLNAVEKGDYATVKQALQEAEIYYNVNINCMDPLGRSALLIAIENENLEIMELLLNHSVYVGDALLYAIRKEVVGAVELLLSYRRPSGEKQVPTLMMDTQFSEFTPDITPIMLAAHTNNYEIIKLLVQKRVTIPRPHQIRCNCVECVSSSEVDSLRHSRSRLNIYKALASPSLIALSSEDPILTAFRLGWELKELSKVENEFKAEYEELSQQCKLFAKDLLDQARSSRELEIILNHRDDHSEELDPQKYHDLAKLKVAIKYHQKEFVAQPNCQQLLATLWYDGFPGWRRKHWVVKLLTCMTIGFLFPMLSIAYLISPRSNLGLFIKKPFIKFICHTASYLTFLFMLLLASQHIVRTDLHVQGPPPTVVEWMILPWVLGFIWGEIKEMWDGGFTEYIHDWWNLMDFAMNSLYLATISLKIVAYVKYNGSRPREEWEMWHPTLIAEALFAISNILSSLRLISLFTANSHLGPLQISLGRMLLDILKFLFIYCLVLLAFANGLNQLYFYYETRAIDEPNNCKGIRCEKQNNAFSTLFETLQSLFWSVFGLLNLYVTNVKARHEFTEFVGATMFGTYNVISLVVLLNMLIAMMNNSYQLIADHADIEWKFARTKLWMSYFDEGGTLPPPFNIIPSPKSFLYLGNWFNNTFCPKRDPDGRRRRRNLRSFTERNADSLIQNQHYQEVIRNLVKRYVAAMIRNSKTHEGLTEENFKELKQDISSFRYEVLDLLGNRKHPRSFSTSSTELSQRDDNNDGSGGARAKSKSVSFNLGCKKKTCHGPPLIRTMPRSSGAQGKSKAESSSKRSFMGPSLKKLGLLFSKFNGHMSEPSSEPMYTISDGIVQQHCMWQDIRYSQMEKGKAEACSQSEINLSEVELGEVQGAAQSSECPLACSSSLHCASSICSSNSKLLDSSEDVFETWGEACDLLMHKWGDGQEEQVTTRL
The experiment is described as follows: TRPC5 automated patch clamp assay (Qpatch), current block after rosiglitazone stimulation. Type of experiment: cell-based. The settings on record: HEK293 cells overexpressing TRPC5; rosiglitazone stimulation; 80 mV; read-out: TRPC5_QP XC50_80. The gist of the method:
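HEK 293 cells expressing human TRPC5, whole-cell QPatch recording; 1 μM buffered free internal Ca2+, external pH 7.4. Ramps −100 to +100 mV over 300 ms every 10 s from −60 mV holding; channel activated by Rosiglitazone (30 uM) after ≥60 s control. IC50 from Hill fit.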
On the technique in general: The patch-clamp technique gives a direct electrical read-out from membranes.
For the compound `Cc1ccccc1CN1CCN(c2c(Br)cn[nH]c2=O)CC1`, the pIC50 was 5.30 to 6.00.

Staying with this experiment, now noted: HEK293 cells overexpressing TRPC5; rosiglitazone stimulation; 100 mV; read-out: TRPC5_QP XC50_100.
`Cc1ccccc1CN1CCN(c2c(Br)cn[nH]c2=O)CC1`: the pIC50 is 5.30 to 6.00.

Staying with this experiment, now noted: Table 3; HEK293 cells overexpressing TRPC5; rosiglitazone stimulation; 80 mV; read-out: TRPC5_QP_ XC50_80.
As to `Cc1ccccc1CN1CCN(c2cn[nH]c(=O)c2C(F)(F)F)CC1=O`, the pIC50 was 5.30 to 6.00.

As for `O=c1[nH]ncc(N2CCN(Cc3ccccc3OC(F)(F)F)CC2)c1Cl`, the pIC50 was 5.30 to 6.00.

Turning to `Cc1ccccc1CN1CCN(c2cn[nH]c(=O)c2Br)C(C)C1` (stereo not drawn) [drawing 650], the pIC50 was 3.30 to 5.00.

Regarding `Cc1ccccc1CN1CCC2(C1)CN(c1cn[nH]c(=O)c1Br)C2`, the pIC50 is 3.30 to 5.00.

Take `O=c1[nH]ncc(N2CCN(CC(F)(F)F)CC2)c1Br`: the pIC50 was 3.30 to 5.00.

For `O=C1CN(c2cn[nH]c(=O)c2Cl)CCN1Cc1ccc(F)cc1Cl` [drawing 682], the pIC50 was 5.30 to 6.00.

Consider `O=c1[nH]ncc(N2CCN(Cc3ccccc3Cl)CC2)c1Cl` [drawing 676], for which the pIC50 was 5.30 to 6.00.

Turning to `Cc1ccccc1CN1C2CC1CN(c1cn[nH]c(=O)c1Br)C2`, the pIC50 was 3.30 to 5.00.

In the case of `Cc1ccccc1CN1CC2CCC(C1)N2c1cn[nH]c(=O)c1Br`, the pIC50 is 3.30 to 5.00.

Turning to `Cc1ccccc1CN1CCN(c2cn[nH]c(=O)c2Cl)CC1`, the pIC50 is 5.30 to 6.00.

On to `Cc1cc(F)ccc1CN1CCN(c2c(Cl)cn[nH]c2=O)CC1`, for which the pIC50 was 5.30 to 6.00.

`Cc1ccccc1CN1CC2CC1CN2c1cn[nH]c(=O)c1Br` (stereo not drawn): the pIC50 is 3.30 to 5.00.

Turning to `Cc1ccccc1CN1CCN(c2cn[nH]c(=O)c2OC2CCCC2)CC1=O`, the pIC50 is 5.00 to 5.30.

For the compound `Cc1ccccc1CN1CCN(c2cn[nH]c(=O)c2C#CC2CC2)CC1=O`, the pIC50 was 3.30 to 5.00.

For `O=c1[nH]ncc(N2CC3(CN(Cc4ccccc4)C3)C2)c1Br`, the pIC50 was 3.30 to 5.00.

In the case of `O=c1[nH]ncc(N2CCN(Cc3ccccc3OC(F)(F)F)CC2)c1Br`, the pIC50 is 5.30 to 6.00.

As for `O=C1CN(c2cn[nH]c(=O)c2Cl)CCN1Cc1ccc(Cl)cc1F`, the pIC50 was 5.00 to 5.30.

As to `Cc1ccccc1CN1CCN(c2cn[nH]c(=O)c2-c2ccccn2)CC1=O`, the pIC50 was 3.30 to 5.00.

Staying with this experiment, now noted: Table 3; HEK293 cells overexpressing TRPC5; rosiglitazone stimulation; 100 mV; read-out: TRPC5_QP_ XC50_100.
`Cc1ccccc1CN1CCN(c2cn[nH]c(=O)c2C(F)(F)F)CC1=O`: the pIC50 is 5.00 to 5.30.

As to `O=c1[nH]ncc(N2CCN(Cc3ccccc3OC(F)(F)F)CC2)c1Cl`, the pIC50 is 5.30 to 6.00.

In the case of `Cc1ccccc1CN1CCN(c2cn[nH]c(=O)c2Br)C(C)C1` (stereo not drawn) [drawing 650], the pIC50 was 3.30 to 5.00.

For the compound `Cc1ccccc1CN1CCC2(C1)CN(c1cn[nH]c(=O)c1Br)C2`, the pIC50 was 3.30 to 5.00.

For `O=c1[nH]ncc(N2CCN(CC(F)(F)F)CC2)c1Br`, the pIC50 was 3.30 to 5.00.

For the compound `O=C1CN(c2cn[nH]c(=O)c2Cl)CCN1Cc1ccc(F)cc1Cl` [drawing 682], the pIC50 is 5.30 to 6.00.

For the compound `O=c1[nH]ncc(N2CCN(Cc3ccccc3Cl)CC2)c1Cl` [drawing 676], the pIC50 is 5.30 to 6.00.

On to `Cc1ccccc1CN1CCN(c2cn[nH]c(=O)c2Br)CC1C` (stereo not drawn) [drawing 651], for which the pIC50 is 3.30 to 5.00.

Turning to `Cc1ccccc1CN1C2CC1CN(c1cn[nH]c(=O)c1Br)C2`, the pIC50 is 3.30 to 5.00.

As to `Cc1ccccc1CN1CC2CCC(C1)N2c1cn[nH]c(=O)c1Br`, the pIC50 is 3.30 to 5.00.

Regarding `Cc1ccccc1CN1CCN(c2cn[nH]c(=O)c2Cl)CC1`, the pIC50 was 5.30 to 6.00.

As for `Cc1cc(F)ccc1CN1CCN(c2c(Cl)cn[nH]c2=O)CC1`, the pIC50 was 5.30 to 6.00.

For the compound `Cc1ccccc1CN1CC2CC1CN2c1cn[nH]c(=O)c1Br` (stereo not drawn), the pIC50 was 3.30 to 5.00.

`Cc1ccccc1CN1CCN(c2cn[nH]c(=O)c2OC2CCCC2)CC1=O`: the pIC50 was 5.00 to 5.30.

As to `Cc1ccccc1CN1CCN(c2cn[nH]c(=O)c2C#CC2CC2)CC1=O`, the pIC50 is 3.30 to 5.00.

For the compound `O=c1[nH]ncc(N2CC3(CN(Cc4ccccc4)C3)C2)c1Br`, the pIC50 was 3.30 to 5.00.

Regarding `O=c1[nH]ncc(N2CCN(Cc3ccccc3OC(F)(F)F)CC2)c1Br`, the pIC50 is 5.30 to 6.00.

Regarding `O=C1CN(c2cn[nH]c(=O)c2Cl)CCN1Cc1ccc(Cl)cc1F`, the pIC50 is 5.00 to 5.30.

`Cc1ccccc1CN1CCN(c2cn[nH]c(=O)c2-c2ccccn2)CC1=O`: the pIC50 was 3.30 to 5.00.

The experiment is the same for the next values; noted with them: Table 4; HEK293 cells overexpressing TRPC5; rosiglitazone stimulation; 80 mV; read-out: TRPC5_QP_ XC50_80.
Consider `CCCc1c(N2CCN(Cc3ccccc3C)C(=O)C2)cn[nH]c1=O`, for which the pIC50 was 3.30 to 5.00.

Consider `Cc1cc(F)ccc1CN1CCN(c2c(Cl)c(C)n[nH]c2=O)CC1=O`, for which the pIC50 is 3.30 to 5.00.

Consider `O=C1CN(c2c(Cl)c(Br)n[nH]c2=O)CCN1Cc1ccccc1OC(F)(F)F`, for which the pIC50 is 3.30 to 5.00.

Take `Cc1ncccc1CN1CCN(c2cn[nH]c(=O)c2Cl)CC1` [drawing 719]: the pIC50 is 6.00 to 11.00.

Regarding `O=C1CN(c2cn[nH]c(=O)c2Cl)CCN1Cc1ccc(C(F)(F)F)cc1`, the pIC50 is 6.00 to 11.00.

As to `Cn1ncc2c(CN3CCN(c4cn[nH]c(=O)c4Cl)CC3)cccc21`, the pIC50 was 3.30 to 5.00.

The same experiment, now with this note: Table 4; HEK293 cells overexpressing TRPC5; rosiglitazone stimulation; 100 mV; read-out: TRPC5_QP_ XC50_100.
Consider `CCCc1c(N2CCN(Cc3ccccc3C)C(=O)C2)cn[nH]c1=O`, for which the pIC50 was 3.30 to 5.00.

In the case of `Cc1cc(F)ccc1CN1CCN(c2c(Cl)c(C)n[nH]c2=O)CC1=O`, the pIC50 is 3.30 to 5.00.

`O=C1CN(c2c(Cl)c(Br)n[nH]c2=O)CCN1Cc1ccccc1OC(F)(F)F`: the pIC50 is 3.30 to 5.00.

With `Cc1ncccc1CN1CCN(c2cn[nH]c(=O)c2Cl)CC1` [drawing 719], the pIC50 is 6.00 to 11.00.

As to `O=C1CN(c2cn[nH]c(=O)c2Cl)CCN1Cc1ccc(C(F)(F)F)cc1`, the pIC50 was 6.00 to 11.00.

On to `Cn1ncc2c(CN3CCN(c4cn[nH]c(=O)c4Cl)CC3)cccc21`, for which the pIC50 was 3.30 to 5.00.
